# From patent US12485154B2 (priority 2019, dated 2025)
# System: new influenza virus (A/California/04/2009(H1N1))
# Assay type: in vivo
# Settings: H1N1-infected BALB/c mice (6 per group), observed 14 days after infection; ginseng concentrates 10 mg/kg/day for 14 days before and one week after inoculation; Tamiflu 2 mg/kg/day
smiles,measurement,value
CCOC(=O)C1=C[C@@H](OC(CC)CC)[C@H](NC(C)=O)[C@@H](N)C1 [Tamiflu],Fatality,0%
